Reference: PMC10931740, “Uncovering the Role of Hydroxycinnamoyl Transferase in Boosting Chlorogenic Acid Accumulation in Carthamus tinctorius Cells under Methyl Jasmonate Elicitation” (International Journal of Molecular Sciences, 2024)

System: T1, CtHCT (CtNewGene_3476), recombinant hydroxycinnamoyl transferase
T1 construct: gene HCT; HXXXD 156-160, DFGWG 379-383
Experiment: HPLC product assay, Lineweaver-Burk
Format: biochemical, Carthamus tinctorius
Conditions: pH 7.5, 35 °C, 1 mM Cu2+
From the text: HPLC product assay, Lineweaver-Burk on CtHCT (CtNewGene_3476), recombinant hydroxycinnamoyl transferase

Km (saturating quinic acid) [µM] | Km (saturating p-coumaroyl-CoA) [µM] | Structure (SMILES)
32.6 | – | CC(C)(COP(=O)(O)OP(=O)(O)OC[C@H]1O[C@@H](n2cnc3c(N)ncnc32)[C@H](O)[C@@H]1OP(=O)(O)O)[C@@H](O)C(=O)NCCC(=O)NCCSC(=O)/C=C/c1ccc(O)c(O)c1 [C-COA, Caffeoyl-CoA]
– | 7.11 | O=C(O)[C@]1(O)C[C@@H](O)[C@@H](O)[C@H](O)C1 [QA, Quinic acid]
– | 18.4 | O=C(O)C1=C[C@@H](O)[C@@H](O)[C@H](O)C1 [SkA, Shikimic acid]
9.41 | – | CC(C)(COP(=O)(O)OP(=O)(O)OC[C@H]1O[C@@H](n2cnc3c(N)ncnc32)[C@H](O)[C@@H]1OP(=O)(O)O)[C@@H](O)C(=O)NCCC(=O)NCCSC(=O)/C=C/c1ccc(O)cc1 [p-CoCOA, p-Coumaroyl-CoA]
